Measured values reported in ChEMBL document CHEMBL6153085, “Discovery of N-(1,2,4-Thiadiazol-5-yl)benzo[b]oxepine-4-carboxamide Derivatives as Novel Antiresistance Androgen Receptor Antagonists” (J Med Chem, 2025).

Tests used:
Androgen receptor = target: T1, Androgen receptor (Homo sapiens, UniProt P10275); experiment: Antagonist activity at Androgen receptor in human LNCaP cells expressing ARR2PB-eGFP incubated for 3 days by fluorescence based assay
T1 sequence (P10275 whole entry): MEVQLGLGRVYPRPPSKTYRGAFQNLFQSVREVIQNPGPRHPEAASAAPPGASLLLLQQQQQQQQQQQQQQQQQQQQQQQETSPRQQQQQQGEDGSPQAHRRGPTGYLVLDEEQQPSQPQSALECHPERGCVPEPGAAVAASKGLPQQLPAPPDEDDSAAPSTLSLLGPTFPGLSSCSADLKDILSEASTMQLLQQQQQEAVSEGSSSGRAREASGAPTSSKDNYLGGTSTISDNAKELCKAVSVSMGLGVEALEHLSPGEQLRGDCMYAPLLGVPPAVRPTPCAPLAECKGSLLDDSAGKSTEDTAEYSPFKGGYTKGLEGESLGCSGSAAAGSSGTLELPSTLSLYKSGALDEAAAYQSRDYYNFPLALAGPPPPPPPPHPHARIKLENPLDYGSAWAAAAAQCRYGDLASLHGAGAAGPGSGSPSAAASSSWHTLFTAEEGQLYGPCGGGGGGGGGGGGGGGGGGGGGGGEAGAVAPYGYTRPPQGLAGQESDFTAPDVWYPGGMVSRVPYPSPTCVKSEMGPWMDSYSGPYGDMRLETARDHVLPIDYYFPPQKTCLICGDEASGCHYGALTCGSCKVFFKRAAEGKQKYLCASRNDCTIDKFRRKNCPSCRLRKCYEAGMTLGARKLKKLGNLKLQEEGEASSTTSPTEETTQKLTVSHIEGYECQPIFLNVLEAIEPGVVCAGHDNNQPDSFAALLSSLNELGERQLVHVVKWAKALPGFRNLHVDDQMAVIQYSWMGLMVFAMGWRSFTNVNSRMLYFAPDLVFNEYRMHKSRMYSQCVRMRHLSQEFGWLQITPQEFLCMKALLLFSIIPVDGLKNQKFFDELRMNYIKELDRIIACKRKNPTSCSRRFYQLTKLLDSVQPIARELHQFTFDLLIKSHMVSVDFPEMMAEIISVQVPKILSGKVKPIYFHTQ

[1] = Antiproliferative activity against human LNCaP-EnzR cells assessed as inhibition of cell proliferation incubated for 3 days by MTT assay; details: 72 h
LNCaP = experiment: Antiproliferative activity against human LNCaP cells assessed as inhibition of cell proliferation incubated for 3 days by MTT assay; details: 72 h
[2] = Antiproliferative activity against mouse 3T3 cells incubated for 3 days by MTT assay; details: NIH3T3 cells

| SMILES | IC50 (Androgen receptor) | IC50 [1] | IC50 (LNCaP) | IC50 at 3 days [2] |
| --- | --- | --- | --- | --- |
| CC(=O)Cc1nsc(NC(=O)/C=C/c2ccc(C(F)(F)F)cc2)n1 | 16 µM | – | – | – |
| CNC(=O)c1ccc(N2C(=S)N(c3ccc(C#N)c(C(F)(F)F)c3)C(=O)C2(C)C)cc1F [ENZALUTAMIDE] | – | > 50 µM | 15.8 µM | > 50 µM |
